Laboratory results from patent US11884710B2, “Peptide compounds and methods of use in wound healing” (priority 2013, dated 2024).

What was measured:
[1] = test system: Pseudomonas aeruginosa ATCC 27853; test: In vitro bactericidal assay, P. aeruginosa ATCC 27853 (FIGS. 12-14); format: cell-based; settings: for activity in in vitro killing assays, in words / reduction of the CFU: FIG. 14; for reduction of the CFU: peptides at 150, 75, 37.5 μg/ml; for reduction of CFU/ml: highest peptide concentration
Procedure: Each of the test peptides was used at 25, 12.5 6.25, and 3.12 μM. The gentamicin was used at 4 μg/ml. 1×10^6/ml Pseudomonas aeruginosa ATCC® 27853™ (American Type Culture Collection, Manassas, Va.) were incubated with the peptides, negative buffer control (tryptone saline), and positive control gentamicin for 180 minutes at pH 7.2. 50 μl aliquots were plated out on agar plates and incubated overnight. Colony forming units were counted after overnight incubation and CFU/ml calculated.
Each of the test peptides was used at 25, 12.5, 6.25, and 3.12 μM. The gentamicin was used at 4 μg/ml. 1×10^6/ml Pseudomonas aeruginosa ATCC® 27853™ (American Type Culture Collection, Manassas, Va.) were incubated with the peptides, negative buffer control (tryptone saline), and positive control gentamicin for 180 minutes at pH 5.5. 50 μl aliquots were plated out on agar plates and incubated overnight. Colony forming units were counted after overnight incubation and CFU/ml calculated.
FIG. 14 is a comparison of bactericidal activity of CAP37 peptides 120-146WR (SEQ ID NO:30), 120-146WH (SEQ ID NO:31), 120-146QR (SEQ ID NO:28), 120-146QH (SEQ ID NO:29), 120-146QR-5RMP (SEQ ID NO:32), and 120-146QH-5RMP (SEQ ID NO:33) for Pseudomonas aeruginosa ATCC® 27853™ (American Type Culture Collection, Manassas, Va.). 1×10^6/ml Pseudomonas aeruginosa ATCC® 27853™ were incubated with the peptides at 150, 75, and 37.5 μg/ml and negative buffer control (tryptone saline) for 180 minutes at pH 5.5. 50 μl aliquots were plated out on agar plates and incubated overnight. Colony forming units were counted after overnight incubation and CFU/ml calculated.
(§1) For FIGS. 10-13, in vitro bactericidal assays were performed using a starting inoculum of 1×10^6 CFU/ml of the bacterial suspension. The CFU remaining at the end of the 60-180 minute incubation was determined, and the data was plotted as log reduction in CFU/ml.
(§2) In particular, each of the test peptides (CAP37 peptides 120-146WR, 120-146WH, and 95-122 (SEQ ID NOS:30, 31, and 26, respectively)) was used at 25, 12.5, 6.25, and 3.12 μM. Gentamicin was used at 4 μg/ml. 1×10^6/ml Acinetobacter baumannii ATCC® BAA-747™ or Pseudomonas aeruginosa ATCC® 27853™ (American Type Culture Collection, Manassas, Va.) were incubated with the peptides, negative buffer control (tryptone saline), and positive control gentamicin at pH 5.5 or 7.2. A 60 minute incubation was used for Acinetobacter baumannii ATCC® BAA-747™, while a 180 minute incubation was used for Pseudomonas aeruginosa ATCC® 27853™. 50 μl aliquots were plated out on agar plates and incubated overnight. Colony forming units were counted after overnight incubation and CFU/ml calculated.
For FIG. 14, 1×10^6/ml Pseudomonas aeruginosa ATCC® 27853™ were incubated with each of the test peptides (CAP37 peptides 120-146WR, 120-146WH, 120-146QR, 120-146QH, 120-146QR-5RMP, and 120-146QH-5RMP (SEQ ID NOS:30, 31, 28, 29, 32, and 33, respectively)) at 150, 75, and 37.5 μg/ml, or negative buffer control (tryptone saline), for 180 minutes at pH 5.5. 50 μl aliquots were plated out on agar plates and incubated overnight. Colony forming units were counted after overnight incubation and CFU/ml calculated.

[2] = test system: Acinetobacter baumannii ATCC BAA-747; test: In vitro bactericidal assay, A. baumannii ATCC BAA-747 (FIGS. 10-11); format: cell-based; settings: for reduction of CFU/ml: highest peptide concentration
Procedure: Each of the test peptides was used at 25, 12.5 6.25 and 3.12 μM. The gentamicin was used at 4 μg/ml. 1×10^6/ml Acinetobacter baumannii ATCC® BAA-747™ (American Type Culture Collection, Manassas, Va.) were incubated with the peptides, negative buffer control (tryptone saline), and positive control gentamicin for 60 minutes at pH 5.5. 50 μl aliquots were plated out on agar plates and incubated overnight. Colony forming units were counted after overnight incubation and CFU/ml calculated.
Each of the test peptides was used at 25, 12.5 6.25 and 3.12 μM. The gentamicin was used at 4 μg/ml. 1×10^6/ml Acinetobacter baumannii ATCC® BAA-747™ (American Type Culture Collection, Manassas, Va.) were incubated with the peptides, negative buffer control (tryptone saline), and positive control gentamicin for 60 minutes at pH 7.2. 50 μl aliquots were plated out on agar plates and incubated overnight. Colony forming units were counted after overnight incubation and CFU/ml calculated.
as §1, §2

[3] = pH 7.2, 180 minutes, 120-146WR/WH at 25 μM, 95-122 at 3.12-25 μM

Sequence	activity in in vitro killing assays, in words ([1]; pH 5.5, 180 minutes)	reduction of the CFU ([1]; pH 5.5, 180 minutes) [logs]	bactericidal activity, in words [1, 3]	reduction of CFU/ml ([1]; pH 7.2, 180 minutes) [logs]	reduction of CFU/ml ([2]; pH 5.5, 60 minutes) [logs]	reduction of CFU/ml ([2]; pH 7.2, 60 minutes) [logs]	bactericidal activity, in words ([2]; peptide at 25 μM)	bactericidal activity, in words ([1]; 120-146WR at 25 μM, gentamicin 4 μg/ml)	bactericidal activity, in words ([2]; peptide at 12.5 μM)	bactericidal activity, in words ([1]; pH 5.5, 180 minutes, peptides 3.12-25 μM, gentamicin 4 μg/ml)	bactericidal activity, in words ([2]; pH 5.5, 60 minutes, peptides 3.12-25 μM, gentamicin 4 μg/ml)	bactericidal activity, in words ([2]; pH 7.2, 60 minutes, peptides 3.12-25 μM, gentamicin 4 μg/ml)
GTRCQVAGWGSWHSGGRLSRFPRFVNV (derivative of peptide of CAP37 protein) [Peptide 120-146WH]	strongly active	6	as effective as the standard antibiotic gentamicin	6	~4	~5.5	highly active	–	–	–	–	–
GTRCQVAGWGSWRSGGRLSRFPRFVNV (derivative of peptide of Homo sapiens CAP37 protein) [Peptide 120-146WR]	strongly active	6	as effective as the standard antibiotic gentamicin	6	~4	~5.5	highly active	highly active	highly active	–	–	–
LDREANLTSSVTILPLPLQNATVEAGTR (listed as Homo sapiens) [Peptide 95-122]	–	–	not active	–	–	–	–	–	–	not active	not active	not active
